Reference: article PMC5889666 (Proceedings of the National Academy of Sciences of the …, 2018)

Assays:
FadD = target: T1, FadD (Escherichia coli, UniProt P69451); assay: in vitro acyl-CoA synthesis, product by LC-MS; format: biochemical
T1 sequence (P69451 1-561): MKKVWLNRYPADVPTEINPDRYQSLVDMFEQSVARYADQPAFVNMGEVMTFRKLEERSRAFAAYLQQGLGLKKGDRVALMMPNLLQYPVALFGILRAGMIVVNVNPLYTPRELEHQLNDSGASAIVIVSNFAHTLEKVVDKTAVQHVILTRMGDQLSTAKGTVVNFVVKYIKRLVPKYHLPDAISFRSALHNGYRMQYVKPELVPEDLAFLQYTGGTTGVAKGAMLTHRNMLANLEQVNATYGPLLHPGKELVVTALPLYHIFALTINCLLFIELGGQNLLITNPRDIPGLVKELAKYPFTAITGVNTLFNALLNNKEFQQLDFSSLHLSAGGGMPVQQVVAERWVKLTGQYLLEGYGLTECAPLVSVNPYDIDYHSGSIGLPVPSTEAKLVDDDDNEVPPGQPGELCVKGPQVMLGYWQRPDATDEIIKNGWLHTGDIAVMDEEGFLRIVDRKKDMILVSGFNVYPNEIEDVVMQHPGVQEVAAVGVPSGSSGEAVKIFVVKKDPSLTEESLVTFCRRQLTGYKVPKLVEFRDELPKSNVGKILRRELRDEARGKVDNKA

PlsB = target: T2, PlsB (Escherichia coli, UniProt P0A7A7); assay: in vitro lyso-phosphatidic acid synthesis, product by LC-MS; format: biochemical; conditions: co-substrate acyl-CoA made from oleic acid and CoA by FadD
T2 sequence (P0A7A7 2-807): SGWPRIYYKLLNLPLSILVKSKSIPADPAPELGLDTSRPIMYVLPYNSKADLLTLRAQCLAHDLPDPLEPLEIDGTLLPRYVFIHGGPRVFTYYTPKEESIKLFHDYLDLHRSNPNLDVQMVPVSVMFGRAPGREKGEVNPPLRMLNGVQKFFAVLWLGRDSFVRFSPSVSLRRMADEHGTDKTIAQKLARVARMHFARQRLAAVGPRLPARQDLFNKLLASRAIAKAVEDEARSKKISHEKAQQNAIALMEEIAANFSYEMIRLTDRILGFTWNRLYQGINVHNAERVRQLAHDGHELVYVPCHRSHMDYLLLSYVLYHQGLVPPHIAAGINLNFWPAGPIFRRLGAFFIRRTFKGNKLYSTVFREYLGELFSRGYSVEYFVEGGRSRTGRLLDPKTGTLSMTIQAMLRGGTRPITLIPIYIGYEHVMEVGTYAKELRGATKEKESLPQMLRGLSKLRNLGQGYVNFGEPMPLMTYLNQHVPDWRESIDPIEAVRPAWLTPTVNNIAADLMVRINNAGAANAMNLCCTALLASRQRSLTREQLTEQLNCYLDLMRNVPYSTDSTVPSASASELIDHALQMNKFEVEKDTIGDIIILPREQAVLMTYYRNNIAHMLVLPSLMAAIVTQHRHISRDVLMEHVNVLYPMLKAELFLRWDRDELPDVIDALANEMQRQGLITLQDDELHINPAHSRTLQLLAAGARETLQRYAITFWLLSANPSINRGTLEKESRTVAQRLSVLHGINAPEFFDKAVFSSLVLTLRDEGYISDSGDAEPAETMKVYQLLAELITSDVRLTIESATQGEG

purified protein [1] = substrate: O=P(O)(O)OC[C@H](O)CO; assay: purified protein; conditions: co-substrate GGPP
purified protein [2] = substrate: O=P(O)(O)OC[C@@H](O)CO; assay: purified protein; conditions: co-substrate GGPP

Molecule: CC(C)(COP(=O)(O)OP(=O)(O)OC[C@H]1O[C@@H](n2cnc3c(N)ncnc32)[C@H](O)[C@@H]1OP(=O)(O)O)[C@@H](O)C(=O)NCCC(=O)NCCS [CoA]
- in vitro acyl-CoA synthesis, product by LC-MS (FadD; co-substrate oleic acid): in vitro condensation of oleic acid and CoA to yield acyl-CoA

Molecule: CCCCCCCC/C=C\CCCCCCCC(=O)O [oleic acid]
- in vitro acyl-CoA synthesis, product by LC-MS (FadD; co-substrate CoA): in vitro condensation of oleic acid and CoA to yield acyl-CoA

Molecule: O=P(O)(O)OC[C@H](O)CO [G3P]
- in vitro lyso-phosphatidic acid synthesis, product by LC-MS (PlsB): LPA synthesis was observed only in the presence of G3P

B1: GGGPS (Methanococcus maripaludis S2) (protein)
chain: MQIKIGEIESKLNKIIEEEGAAYFVLIDPDEKNYREIANHVKDYADAIIIGGSIGIINLDEVTKDIKEITGLPIILFPGNVDGVTKEADAVFFMSLMNSKNTYWNMTAPTLGALTIKKYGLETLPMAYLGIEPISKTAVGFVGEVNEIPQKKPEIAGLYSLSASYFGMRWAYLEAGSGAEYPVSNEMVGISKKLSGINIIVGGGIRTPEVAYEKVMSGADVIVTGTLTEKDPQAVVEMKKAIKKAGLDKLKMLSKK
- Km (purified protein [1]): 46.7 ± 6 µM
- Km (purified protein [2]): 5.8 ± 1.6 µM
